Assay results reported in ChEMBL document CHEMBL3085775, “Design, diversity-oriented synthesis and structure activity relationship studies of quinolinyl heterocycles as antimycobacterial agents” (Eur J Med Chem, 2013).
Values after ≈ are worked out from the molar mass of the structure shown.

Tests used:
A549 = assay: Cytotoxicity against human A549 cells after 48 hrs by MTT assay; format: cell-based; details: A549, 48 h
[1] = system: Mycolicibacterium smegmatis; assay: Antimycobacterial activity against Mycobacterium smegmatis MC2 155 ATCC 14468 after 32 hrs by turbidimetry; format: functional; details: MC2 155 ATCC 14468, 32 h

Row | SMILES | IC50 (A549) | MIC90 [1] [µg/mL] | MIC50 [1] [µg/mL]
1 | COc1ccc(OC)c(C2CC(c3cc4ccccc4nc3C)=NN2C(C)=O)c1 (centres undefined) | 111 µg/mL | > 70 | –
2 | CC(=O)N1N=C(c2cc3ccccc3nc2C)CC1/C=C/c1ccccc1 (centres undefined) | 93.3 µg/mL | > 70 | –
3 | CC(=O)N1N=C(c2cc3ccccc3nc2C)CC1c1ccc(Oc2nc(Cl)c(Cl)cc2Cl)cc1 (centres undefined) | > 200 µg/mL | > 70 | –
4 | Cc1nc2ccccc2cc1-c1nnc(-c2cccs2)o1 | 99.4 µg/mL | 39.7 (≈ 135 µM) | –
5 | Cc1ccc(-c2nnc(-c3cc4ccccc4nc3C)o2)cc1 | 175 µg/mL | 35 (≈ 116 µM) | –
6 | Cc1nc2ccccc2cc1-c1nnc(-c2cccnc2)o1 | 139 µg/mL | 22.7 (≈ 78.8 µM) | –
7 | COc1ccc(C2CC(c3cc4ccccc4nc3C)=NN2C(C)=O)cc1 (centres undefined) | 116 µg/mL | > 70 | –
8 | CO[C@H]1/C=C/O[C@@]2(C)Oc3c(C)c(O)c4c(O)c(c(/C=N/N5CCN(C)CC5)c(O)c4c3C2=O)NC(=O)/C(C)=C\C=C\[C@H](C)[C@H](O)[C@@H](C)[C@@H](O)[C@@H](C)[C@H](OC(C)=O)[C@@H]1C [RIFAMPIN] | – | 2.15 (≈ 2.61 µM) | 2.08 (≈ 2.53 µM)
9 | CCOc1c(F)c(F)c(C2CC(c3cc4ccccc4nc3C)=NN2C(C)=O)c(F)c1F (centres undefined) | 115 µg/mL | > 70 | –
10 | Cc1nc2ccccc2cc1-c1cn2ccccc2n1 | 118 µM | – | > 50
11 | CC(=O)n1ccc(-c2cc3ccccc3nc2C)n1 | 87 µg/mL | 17.3 (≈ 69 µM) | –
12 | CC(=O)N1N=C(c2cc3ccccc3nc2C)CC1c1ccc([N+](=O)[O-])cc1 (centres undefined) | > 200 µg/mL | 50.7 (≈ 135 µM) | –
13 | Cc1nc2ccccc2cc1-c1nnc(-c2coc3ccccc3c2=O)o1 | 111 µg/mL | 16.8 (≈ 47.4 µM) | –
14 | COc1ccc(C2CC(c3cc4ccccc4nc3C)=NN2C(C)=O)cc1OC (centres undefined) | > 200 µg/mL | > 70 | –
15 | CC(=O)N1N=C(c2cc3ccccc3nc2C)CC1c1cccc(Oc2nc(Cl)c(Cl)cc2Cl)c1 (centres undefined) | 72.7 µg/mL | 64.9 (≈ 123 µM) | –
16 | Cc1nc2ccccc2cc1-c1nnc(-c2ccccc2C(=O)O)o1 | 106 µg/mL | 43.3 (≈ 131 µM) | –
17 | CC(=O)N1N=C(c2cc3ccccc3nc2C)CC1c1ccc(C#N)cc1 (centres undefined) | > 200 µg/mL | > 70 | –
18 | NNC(=O)c1ccncc1 [ISONIAZID] | – | 11.8 (≈ 85.9 µM) | 12.1 (≈ 88 µM)
19 | Cc1nc2ccccc2cc1-c1nnc(-c2ccc(C(C)C)cc2)o1 | 103 µg/mL | 41 (≈ 125 µM) | –
20 | Cc1nc2ccccc2cc1-c1nnc(-c2cn(-c3ccccc3)nc2-c2ccccc2)o1 | > 200 µg/mL | > 70 | –
21 | COc1cc(C2CC(c3cc4ccccc4nc3C)=NN2C(C)=O)cc(OC)c1OC (centres undefined) | > 200 µg/mL | 52.1 (≈ 124 µM) | –

Row | SMILES | IC50 (A549) | MIC90 [1] [µg/mL] | MIC50 [1] [µg/mL]
22 | Cc1nc2ccccc2cc1-c1csc(N)n1 | > 200 µM | – | > 50
23 | Cc1nc2ccccc2cc1-c1cc[nH]n1 | 138 µM | – | 14.7 (≈ 70.1 µM)
24 | COc1ccc(C2CC(c3cc4ccccc4nc3C)=NN2C(C)=O)c(OC)c1OC (centres undefined) | 86.5 µg/mL | 46.2 (≈ 110 µM) | –
25 | CC(=O)N1N=C(c2cc3c(Cl)cccc3nc2C)CC1c1ccc(C)cc1 (centres undefined) | 166 µg/mL | > 70 | –
26 | COc1cc(-c2nnc(-c3cc4ccccc4nc3C)o2)cc(OC)c1OC | 113 µg/mL | 61.9 (≈ 164 µM) | –
27 | CC(=O)N1N=C(c2cc3ccccc3nc2C)CC1c1ccc(N(C)C)cc1 (centres undefined) | 110 µg/mL | > 70 | –
28 | Cc1nc2ccccc2cc1C(=O)NN | 96.4 µM | – | > 50
29 | Cc1nc2ccccc2cc1-c1ccnc(N)n1 | 94.2 µM | – | > 50
30 | Cc1cc(C)n(C(=O)c2cc3ccccc3nc2C)n1 | 97.9 µg/mL | 24.1 (≈ 90.9 µM) | –
31 | Cc1nc2ccccc2cc1-c1nnc(-c2ccc(OC(F)(F)F)cc2)o1 | 91.1 µg/mL | > 70 | –
32 | Cc1nc2ccccc2cc1C(=O)n1nc(C)c(C2CCCCO2)c1C (centres undefined) | 143 µg/mL | > 70 | –
33 | COc1ccc(C2CC(c3cc4ccccc4nc3C)=NN2c2ccccc2)c(OC)c1OC (centres undefined) | 143 µg/mL | 43.5 (≈ 96 µM) | –
34 | COc1cc(OC)c(C2CC(c3cc4ccccc4nc3C)=NN2C(C)=O)c(OC)c1 (centres undefined) | 171 µM | – | 57.9 (≈ 138 µM)
35 | Cc1nc2ccccc2cc1-c1nnc(C(C)c2ccccc2)o1 (centres undefined) | 165 µg/mL | 35.9 (≈ 114 µM) | –
36 | CCCCCc1nnc(-c2cc3ccccc3nc2C)o1 | 72.2 µg/mL | > 70 | –
37 | COc1cc(C2CC(c3cc4ccccc4nc3C)=NN2c2ccccc2)cc(OC)c1OC (centres undefined) | > 200 µg/mL | > 70 | –
38 | Cc1nc2ccccc2cc1-c1nnc(-c2ccc(F)c(C(F)(F)F)c2)o1 | 93.3 µg/mL | 47.5 (≈ 127 µM) | –
39 | Cc1nc2ccccc2cc1C1=NN(c2ccccc2)C(c2ccc(Br)cc2)C1 (centres undefined) | 93 µg/mL | > 70 | –
40 | Cc1nc2ccccc2cc1-c1nnc(CCc2ccccc2)o1 | 145 µM | – | 35 (≈ 111 µM)
41 | COc1ccc(OC)c(-c2nnc(-c3cc4ccccc4nc3C)o2)c1 | 134 µg/mL | 29.2 (≈ 84 µM) | –
42 | Cc1nc2ccccc2cc1-c1nnc(-c2cccc(Oc3ccccc3)c2)o1 | 146 µg/mL | > 70 | –
